Consider 46 compounds from ChEMBL document CHEMBL5338758, “Design, Synthesis, and Bioevaluation of Novel MyD88 Inhibitor c17 against Acute Lung Injury Derived from the Virtual Screen” (J Med Chem, 2023).

Data set [1] deals with J774.A1. Briefly: Anti-inflammatory activity in mouse J774.A1 cells assessed as inhibition of LPS-induced IL-6 production at 10 uM pre-stimulated with LPS for 24 hrs followed by compound addition and measured after 0.5 hrs by ELISA analysis relative to control. The data set is classed as functional. (In general: In an ELISA, binding on a coated surface is turned into a signal by an enzyme label.)

Data set [2] has as its system J774.A1. Description: Anti-inflammatory activity in mouse J774.A1 cells assessed as inhibition of LPS-induced TNF-alpha production at 10 uM pre-stimulated with LPS for 24 hrs followed by compound addition and measured after 0.5 hrs by ELISA analysis relative to control. The data set is classed as functional.
In data set [3] the target is T1, Myeloid differentiation primary response protein MyD88 (Homo sapiens, UniProt Q99836). Briefly: Binding affinity to human MyD88 TIR domain assessed as equilibrium dissociation constant by SPR analysis. Background: Surface plasmon resonance follows binding to a sensor surface in real time, without labels.
Data set [4] has as its system J774.A1. Description: Anti-inflammatory activity in mouse J774.A1 cells assessed as suppression of LPS-induced IL-6 production by ELISA analysis. The data set is classed as functional, cell-based.
In data set [5] the test system is J774.A1. Description: Anti-inflammatory activity in mouse J774.A1 cells assessed as inhibition of LPS-induced IL-6 production pre-stimulated with LPS for 24 hrs followed by compound addition and measured after 0.5 hrs by ELISA analysis. The data set is classed as functional, cell-based.
Data set [6] has as its system J774.A1. Description: Anti-inflammatory activity in mouse J774.A1 cells assessed as inhibition of LPS-induced TNF-alpha production pre-stimulated with LPS for 24 hrs followed by compound addition and measured after 0.5 hrs by ELISA analysis. The data set is classed as functional, cell-based.
In data set [7] the test system is J774.A1. Description: Cytotoxicity against mouse J774.A1 cells assessed as reduction in cell survival incubated for 24 hrs by MTT assay. The data set is classed as toxicity, cell-based. The note with it: j774.a1, 24 h. A general note: Tetrazolium dyes change colour on reduction, which living cells bring about.
Data set [8] addresses T1, Myeloid differentiation primary response protein MyD88. Description: Binding affinity to human MyD88 TIR domain by SPR analysis. To be noted: dose 1.19-5.94 10^-5M.

Molecules are shown by their SMILES. Activity calls are given as the source filed them. No cut-off for these calls is given here.

As usually defined, the inhibition is the share of the control response that was lost under treatment. What is called Kd is the free concentration of one partner at which half of the binding sites on the other are occupied at equilibrium, for simple one-to-one binding. One may read the IC50 as the midpoint of a concentration-inhibition curve.

T1 sequence (Q99836 whole entry, the tested form may be a part): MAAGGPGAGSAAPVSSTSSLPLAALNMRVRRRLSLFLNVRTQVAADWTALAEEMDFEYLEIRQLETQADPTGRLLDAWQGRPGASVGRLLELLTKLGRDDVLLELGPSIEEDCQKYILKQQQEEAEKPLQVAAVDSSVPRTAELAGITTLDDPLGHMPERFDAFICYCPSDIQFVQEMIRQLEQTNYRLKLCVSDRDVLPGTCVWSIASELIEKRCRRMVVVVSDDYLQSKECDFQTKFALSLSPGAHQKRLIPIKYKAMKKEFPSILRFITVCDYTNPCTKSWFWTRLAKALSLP

For the compound `O=c1nc(-c2ccc(CN3CCN(CCO)CC3)cc2)cc(-c2ccc(Br)cc2)[nH]1`, the inhibition at 10 µM was found to be 7.52% in the data set on J774.A1 [1] and 29.6% with J774.A1 [2].
The like results for `COc1ccc(NS(=O)(=O)c2ccc(N3CCN(c4cnc(NC(C)=O)s4)CC3)c([N+](=O)[O-])c2)cn1` were, in that order, 39.9% and 12.2%.
The like results for `COc1ccc(CN2CCN(c3ccc(S(=O)(=O)Nc4ccc(OC)nc4)cc3[N+](=O)[O-])CC2)cc1` were, in that order, 63.5% and 27.9%.
`COCCN1CCN(c2ccc(S(=O)(=O)Nc3ccc(OC)nc3)cc2[N+](=O)[O-])CC1`: the figures for the inhibition at 10 µM in the data set on J774.A1 [1] and in the data set with J774.A1 [2] were 47.3% and 1.16%, respectively.
With `CCCCCNCc1ccc(-c2cc(-c3ccc(OC)cc3)[nH]c(=O)n2)cc1`, the inhibition at 10 µM with J774.A1 [1] is 35.3%; in the data set with J774.A1 [2], 24.1%.
The like results for `O=C(Nc1ccccc1)c1ccc(N2CCN(CCO)CC2)c([N+](=O)[O-])c1` were, in that order, 47.5% and 1.01%.
The corresponding values for `COc1ccc(NS(=O)(=O)c2ccc(N3CCN(Cc4ccccc4)CC3)c([N+](=O)[O-])c2)cn1` are 55.1% and 27.7%.
The corresponding values for `O=c1nc(-c2ccc(CN3CCN(CCOCCO)CC3)cc2)cc(-c2ccccc2)[nH]1` are 19.3% and 14.2%.
Take `COCCN1CCN(Cc2ccc(-c3cc(-c4ccc(OC)cc4)[nH]c(=O)n3)cc2)CC1`: the inhibition at 10 µM was determined as 14.8% in the data set with J774.A1 [1] and 40.8% with J774.A1 [2].
As for `O=c1[nH]c(-c2ccc(CN3CCN(c4ccc([N+](=O)[O-])cc4)CC3)cc2)nc2ccccc12`, the inhibition at 10 µM in the data set with J774.A1 [1] was found to be 44.1%. For the same compound, the inhibition entry with J774.A1 [2] was “inactive”.
For the compound `COCCN1CCN(c2ccc(S(=O)(=O)NCc3ccccn3)cc2[N+](=O)[O-])CC1`, the inhibition at 10 µM in the data set on J774.A1 [1] is 50.4%; in the data set with J774.A1 [2], 11.8%.
Turning to `CC(=O)N1CCN(Cc2ccc(-c3cc(-c4ccc(Br)cc4)[nH]c(=O)n3)cc2)CC1`, the inhibition entry in the data set with J774.A1 [1] and in the data set on J774.A1 [2] was “inactive” each time.
Consider `COc1ccc(-c2cc(-c3ccc(CN4CCN(CCOCCO)CC4)cc3)nc(=O)[nH]2)cc1`, for which the inhibition at 10 µM worked out at 17.1% in the data set on J774.A1 [1] and 27.2% in the data set on J774.A1 [2].
`O=C(Nc1ccccc1)c1ccc(N2CCN(Cc3cccc([N+](=O)[O-])c3)CC2)c([N+](=O)[O-])c1`: the inhibition entry with J774.A1 [1] and in the data set with J774.A1 [2] was “inactive” each time.
On to `COCCN1CCN(c2ccc(S(=O)(=O)Nc3ccccc3)cc2[N+](=O)[O-])CC1`, for which the inhibition at 10 µM in the data set on J774.A1 [1] was determined as 60.3%; in the data set on J774.A1 [2] it was 16.9%.
Take `O=c1nc(-c2ccc(CN3CCN(CCOCCO)CC3)cc2)cc(-c2ccc(Br)cc2)[nH]1`: the figures for the inhibition at 10 µM in the data set with J774.A1 [1] and in the data set on J774.A1 [2] were 58.4% and 22.6%, respectively.
The like results for `CCCCCNCc1ccc(-c2cc(-c3ccccc3)[nH]c(=O)n2)cc1` were, in that order, 17.9% and 16.1%.
In the case of `O=c1cc(-c2ccncc2)nc(-c2ccc(CN3CCN(CCO)CC3)cc2)[nH]1`, in data set [3], the Kd came to 795 µM. Moreover, the result in the data set with J774.A1 [4] was Active. The results for the inhibition at 10 µM in the data set with J774.A1 [1] and with J774.A1 [2] were 33.5% and 8.59%, respectively.
For `O=C(Nc1ccccc1)c1ccc(N2CCN(c3ccc([N+](=O)[O-])cc3)CC2)c([N+](=O)[O-])c1`, the inhibition at 10 µM with J774.A1 [1] is 14.9%. Moreover, the inhibition entry in the data set with J774.A1 [2] is “inactive”.
For `O=c1nc(-c2ccc(CN3CCN(c4ccc([N+](=O)[O-])cc4)CC3)cc2)cc(-c2ccccc2)[nH]1`, the inhibition at 10 µM in the data set with J774.A1 [1] was 15.7%; in the data set on J774.A1 [2] it was 50.6%.
The corresponding values for `O=C(NCc1ccccn1)c1ccc(N2CCN(Cc3ccc([N+](=O)[O-])cc3)CC2)c([N+](=O)[O-])c1` are 57.6% and 37%.
As for `CC(=O)N1CCN(Cc2ccc(-c3nc4ccccc4c(=O)[nH]3)cc2)CC1`, the inhibition at 10 µM in the data set on J774.A1 [1] stood at 53.7%; in the data set with J774.A1 [2] it was 11.9%.
Regarding `O=[N+]([O-])c1cc(S(=O)(=O)NCc2ccccn2)ccc1N1CCN(CCO)CC1`, the results for the inhibition at 10 µM with J774.A1 [1] and with J774.A1 [2] were 37.8% and 6.63%, respectively.
The like results for `COc1ccc(-c2cc(-c3ccc(CN4CCN(CCO)CC4)cc3)nc(=O)[nH]2)cc1` were, in that order, 8.43% and 33.7%.
The corresponding values for `COc1ccc(NS(=O)(=O)c2ccc(N3CCN(c4ncccn4)CC3)c([N+](=O)[O-])c2)cn1` are 45% and 22.3%.
The like results for `COc1ccc(-c2cc(-c3ccc(CN4CCN(c5ccc([N+](=O)[O-])cc5)CC4)cc3)nc(=O)[nH]2)cc1` were, in that order, 35% and 38.7%.
On to `O=C(Nc1ccccc1)c1ccc(N2CCN(Cc3ccc([N+](=O)[O-])cc3)CC2)c([N+](=O)[O-])c1`, for which the inhibition result in the data set on J774.A1 [1] and in the data set on J774.A1 [2] was “inactive” throughout.
In the case of `O=C(NCc1ccccn1)c1ccc(N2CCN(Cc3ccccc3)CC2)c([N+](=O)[O-])c1`, the inhibition at 10 µM with J774.A1 [1] turned out to be 36.4%; in the data set on J774.A1 [2] it was 35.4%.
The corresponding values for `O=[N+]([O-])c1cc(S(=O)(=O)Nc2ccccc2)ccc1N1CCN(CCO)CC1` are 55.6% and 7.89%.
Consider `COCCN1CCN(Cc2ccc3c(=O)[nH]c(-c4ccccc4)nc3c2)CC1`, for which, in the data set on J774.A1 [1], the inhibition at 10 µM amounted to 29.2%. Moreover, the inhibition result with J774.A1 [2] is “inactive”.
The like results for `O=c1[nH]c(-c2ccccc2)nc2cc(CN3CCN(CCOCCO)CC3)ccc12` were, in that order, 24.1% and “inactive”.
`O=c1nc(-c2ccc(CNc3nc4ccccc4s3)cc2)cc(-c2ccccc2)[nH]1`: the inhibition at 10 µM was determined as 79.5% with J774.A1 [1] and 53.3% in the data set on J774.A1 [2]. Moreover, the IC50 came out at 0.53 µM in the data set with J774.A1 [5] and 17.7 µM in the data set on J774.A1 [6]. The Activity result in the data set on J774.A1 [7] is “Non-Toxic”. Besides, the result in data set [8] was inactive.
For `CC(=O)N1CCN(Cc2ccc3c(=O)[nH]c(-c4ccccc4)nc3c2)CC1`, the inhibition at 10 µM in the data set with J774.A1 [1] turned out to be 26%. The inhibition result in the data set with J774.A1 [2] is “inactive”.
Consider `O=C(Nc1cccc2ccccc12)c1ccc(N2CCN(Cc3cccc([N+](=O)[O-])c3)CC2)c([N+](=O)[O-])c1`, for which the inhibition at 10 µM is 62.2% with J774.A1 [1] and 39.8% in the data set on J774.A1 [2].
The like results for `COCCN1CCN(c2ccc(C(=O)Nc3ccccc3)cc2[N+](=O)[O-])CC1` were, in that order, 47.8% and 26.9%.
`O=[N+]([O-])c1cccc(CN2CCN(c3ccc(S(=O)(=O)Nc4ccccc4)cc3[N+](=O)[O-])CC2)c1`: the inhibition at 10 µM with J774.A1 [1] was found to be 71.2%; in the data set with J774.A1 [2] it was 33.9%.
The corresponding values for `COCCN1CCN(Cc2ccc(-c3nc4ccccc4c(=O)[nH]3)cc2)CC1` are 34% and 22.6%.
Take `O=c1[nH]c(-c2ccccc2)nc2cc(CN3CCN(CCO)CC3)ccc12`: the inhibition at 10 µM in the data set on J774.A1 [1] is 46%. Besides, the inhibition result in the data set on J774.A1 [2] is “inactive”.
Regarding `COCCN1CCN(Cc2ccc(-c3cc(-c4ccc(Br)cc4)[nH]c(=O)n3)cc2)CC1`, the inhibition at 10 µM is 46.1% in the data set with J774.A1 [1] and 41.1% in the data set on J774.A1 [2].
As for `COc1ccc(NS(=O)(=O)c2ccc(N3CCN(Cc4ccc([N+](=O)[O-])cc4)CC3)c([N+](=O)[O-])c2)cn1`, the inhibition at 10 µM was 71.8% with J774.A1 [1] and 37.9% in the data set with J774.A1 [2]. The IC50 with J774.A1 [5] amounted to 3.4 µM; with J774.A1 [6], 14.1 µM.
For `COc1ccc(NS(=O)(=O)c2ccc(N3CCN(CCO)CC3)c([N+](=O)[O-])c2)cn1`, the inhibition at 10 µM in the data set on J774.A1 [1] turned out to be 22.2%. The inhibition entry with J774.A1 [2] was “inactive”.
For the compound `O=c1nc(-c2ccc(CN3CCN(CCO)CC3)cc2)cc(-c2ccccc2)[nH]1`, the inhibition at 10 µM with J774.A1 [1] turned out to be 18.2%; with J774.A1 [2], 17.9%.
The like results for `O=C(NCc1ccccn1)c1ccc(N2CCN(Cc3cccc([N+](=O)[O-])c3)CC2)c([N+](=O)[O-])c1` were, in that order, 33.1% and 27%.
In the case of `COCCN1CCN(Cc2ccc(-c3cc(-c4ccccc4)[nH]c(=O)n3)cc2)CC1`, in the data set with J774.A1 [1], the inhibition result was “inactive”. Also, the inhibition at 10 µM in the data set on J774.A1 [2] came out at 25.6%.
As for `O=c1[nH]c(-c2ccc(CN3CCN(CCO)CC3)cc2)nc2ccccc12`, in the data set on J774.A1 [1], the inhibition at 10 µM is 57.1%. For the same compound, in the data set with J774.A1 [2], the inhibition entry is “inactive”.
In the case of `O=c1[nH]c(-c2ccccc2)nc2cc(CN3CCN(c4ccc([N+](=O)[O-])cc4)CC3)ccc12`, the inhibition entry with J774.A1 [1] and with J774.A1 [2] was “inactive” each time.
